Measured values from ChEMBL document CHEMBL3885881, “DrugMatrix”.

Species on record: Rattus norvegicus
Experiment: DrugMatrix - Regimen: Daily Repeat
Assay type: toxicity, organism-based, Sprague-Dawley
Design: regimen Daily Repeat, gender Male, age 6-8 weeks
Details: in vivo, po, route oral GAVAGE, vehicle 100 % WATER; for ABSOLUTE BASOPHIL / ABSOLUTE EOSINOPHIL / ABSOLUTE LYMPHOCYTE / ABSOLUTE MONOCYTE / ABSOLUTE SEGMENTED NEUTROPHIL / BASOPHIL / EOSINOPHIL / ERYTHROCYTE COUNT / HEMATOCRIT / HEMOGLOBIN / LEUKOCYTE COUNT / LYMPHOCYTE / MEAN CORPUSCULAR HEMOGLOBIN / MEAN CORPUSCULAR HEMOGLOBIN CONCENTRATION / MEAN CORPUSCULAR VOLUME / MONOCYTE / NEUTROPHIL / NUCLEATED RED BLOOD CELLS / PLATELET COUNT: tissue Blood; for ALANINE AMINOTRANSFERASE / ALBUMIN / ALKALINE PHOSPHATASE / ASPARTATE AMINOTRANSFERASE / BLOOD UREA NITROGEN / CARBON DIOXIDE / CHLORIDE / CHOLESTEROL / CREATINE PHOSPHOKINASE / CREATININE / GLUCOSE / LACTATE DEHYDROGENASE / LIPASE / PHOSPHORUS / POTASSIUM / SODIUM / TOTAL BILIRUBIN / TOTAL PROTEIN / URIC ACID: tissue Plasma
[1] = 8 mg/kg, 120 h, dose level Low, time 5 day
[2] = 100 mg/kg, 72 h, dose level High, time 3 day
[3] = 100 mg/kg, 120 h, dose level High, time 5 day

CCN(C(C)=O)c1cccc(-c2ccnc3c(C#N)cnn23)c1 [ZALEPLON]
ABSOLUTE BASOPHIL [1]: 0 CELLS/uL | ABSOLUTE EOSINOPHIL [1]: 56.67 CELLS/uL | ABSOLUTE LYMPHOCYTE [1]: 12514.33 CELLS/uL | ABSOLUTE MONOCYTE [1]: 39.33 CELLS/uL | ABSOLUTE SEGMENTED NEUTROPHIL [1]: 1223 CELLS/uL | BASOPHIL [1]: 0% | EOSINOPHIL [1]: 0.33% | ERYTHROCYTE COUNT [1]: 5.65 x10E6/uL | HEMATOCRIT [1]: 36.27% | HEMOGLOBIN [1]: 14.43 G/DL | LEUKOCYTE COUNT [1]: 13.83 x10E3/uL | LYMPHOCYTE [1]: 90.67% | MEAN CORPUSCULAR HEMOGLOBIN [1]: 25.57 pg | MEAN CORPUSCULAR HEMOGLOBIN CONCENTRATION [1]: 39.8 G/DL | MEAN CORPUSCULAR VOLUME [1]: 64.17 fL | MONOCYTE [1]: 0.33% | NEUTROPHIL [1]: 8.67% | NUCLEATED RED BLOOD CELLS [1]: 0.33 /100WBC | PLATELET COUNT [1]: 1230.33 x10E3/uL | ALANINE AMINOTRANSFERASE [1]: 55.33 u/L | ALBUMIN [1]: 4.17 G/DL | ALKALINE PHOSPHATASE [1]: 388.67 u/L | ASPARTATE AMINOTRANSFERASE [1]: 80.67 u/L | BLOOD UREA NITROGEN [1]: 14.33 mg/dL | CARBON DIOXIDE [1]: 31.67 mmol/L | CHLORIDE [1]: 101.67 MEQ/L | CHOLESTEROL [1]: 66.33 mg/dL | CREATINE PHOSPHOKINASE [1]: 267.33 u/L | CREATININE [1]: 0.15 mg/dL | GLUCOSE [1]: 126.67 mg/dL | LACTATE DEHYDROGENASE [1]: 359 u/L | LIPASE [1]: 11.33 u/L | PHOSPHORUS [1]: 11.67 mg/dL | POTASSIUM [1]: 6.04 MEQ/L | SODIUM [1]: 144.43 MEQ/L | TOTAL BILIRUBIN [1]: 0.17 mg/dL | TOTAL PROTEIN [1]: 6 G/DL | URIC ACID [1]: 1.4 mg/dL | ABSOLUTE BASOPHIL [2]: 0 CELLS/uL | ABSOLUTE EOSINOPHIL [2]: 0 CELLS/uL | ABSOLUTE LYMPHOCYTE [2]: 12984 CELLS/uL | ABSOLUTE MONOCYTE [2]: 96.67 CELLS/uL | ABSOLUTE SEGMENTED NEUTROPHIL [2]: 1352.67 CELLS/uL | BASOPHIL [2]: 0% | EOSINOPHIL [2]: 0% | ERYTHROCYTE COUNT [2]: 5.72 x10E6/uL | HEMATOCRIT [2]: 36.9% | HEMOGLOBIN [2]: 14 G/DL | LEUKOCYTE COUNT [2]: 14.43 x10E3/uL | LYMPHOCYTE [2]: 90% | MEAN CORPUSCULAR HEMOGLOBIN [2]: 24.5 pg | MEAN CORPUSCULAR HEMOGLOBIN CONCENTRATION [2]: 37.97 G/DL | MEAN CORPUSCULAR VOLUME [2]: 64.5 fL | MONOCYTE [2]: 0.67% | NEUTROPHIL [2]: 9.33% | NUCLEATED RED BLOOD CELLS [2]: 0 /100WBC | PLATELET COUNT [2]: 1335.67 x10E3/uL | ALANINE AMINOTRANSFERASE [2]: 82.33 u/L | ALBUMIN [2]: 4.13 G/DL | ALKALINE PHOSPHATASE [2]: 449.67 u/L | ASPARTATE AMINOTRANSFERASE [2]: 80 u/L | BLOOD UREA NITROGEN [2]: 11.67 mg/dL | CARBON DIOXIDE [2]: 33.33 mmol/L | CHLORIDE [2]: 106 MEQ/L | CHOLESTEROL [2]: 71 mg/dL | CREATINE PHOSPHOKINASE [2]: 245.67 u/L | CREATININE [2]: 0.2 mg/dL | GLUCOSE [2]: 139 mg/dL | LACTATE DEHYDROGENASE [2]: 132.33 u/L | LIPASE [2]: 10 u/L | PHOSPHORUS [2]: 11.2 mg/dL | POTASSIUM [2]: 5.9 MEQ/L | SODIUM [2]: 144.73 MEQ/L | TOTAL BILIRUBIN [2]: 0.17 mg/dL | TOTAL PROTEIN [2]: 5.93 G/DL | URIC ACID [2]: 1.4 mg/dL | ABSOLUTE BASOPHIL [3]: 0 CELLS/uL | ABSOLUTE EOSINOPHIL [3]: 0 CELLS/uL | ABSOLUTE LYMPHOCYTE [3]: 12362.67 CELLS/uL | ABSOLUTE MONOCYTE [3]: 101.33 CELLS/uL | ABSOLUTE SEGMENTED NEUTROPHIL [3]: 1236 CELLS/uL | BASOPHIL [3]: 0% | EOSINOPHIL [3]: 0% | ERYTHROCYTE COUNT [3]: 6.29 x10E6/uL | HEMATOCRIT [3]: 38.53% | HEMOGLOBIN [3]: 15 G/DL | LEUKOCYTE COUNT [3]: 13.7 x10E3/uL | LYMPHOCYTE [3]: 89.33% | MEAN CORPUSCULAR HEMOGLOBIN [3]: 23.83 pg | MEAN CORPUSCULAR HEMOGLOBIN CONCENTRATION [3]: 38.93 G/DL | MEAN CORPUSCULAR VOLUME [3]: 61.3 fL | MONOCYTE [3]: 0.67% | NEUTROPHIL [3]: 10% | NUCLEATED RED BLOOD CELLS [3]: 0 /100WBC | PLATELET COUNT [3]: 1219.33 x10E3/uL | ALANINE AMINOTRANSFERASE [3]: 61.67 u/L | ALBUMIN [3]: 4.3 G/DL | ALKALINE PHOSPHATASE [3]: 331.33 u/L | ASPARTATE AMINOTRANSFERASE [3]: 91 u/L | BLOOD UREA NITROGEN [3]: 14.67 mg/dL | CARBON DIOXIDE [3]: 28.67 mmol/L | CHLORIDE [3]: 102 MEQ/L | CHOLESTEROL [3]: 83.33 mg/dL | CREATINE PHOSPHOKINASE [3]: 520 u/L | CREATININE [3]: 0.17 mg/dL | GLUCOSE [3]: 157 mg/dL | LACTATE DEHYDROGENASE [3]: 238.67 u/L | LIPASE [3]: 11 u/L | PHOSPHORUS [3]: 11.7 mg/dL | POTASSIUM [3]: 6.45 MEQ/L | SODIUM [3]: 144.67 MEQ/L | TOTAL BILIRUBIN [3]: 0.2 mg/dL | TOTAL PROTEIN [3]: 6.53 G/DL | URIC ACID [3]: 2.47 mg/dL
